In one experiment the test system is COX-2. The experiment is classed as in vivo, SD rats.
The subject of experiment [1] is iNos. It counts as in vivo, C57BL/6 mice. The settings on record: brain. An excerpt:
(§1) All experimental animals were approved by the Institutional Animal Care and Use Committee at Konkuk University (IACUC approval number, KU18045), Seoul, Republic of Korea.

Experiment [2] has as its system p-IκB-α. The experiment can be described thus: Western blotting of midbrain, MPTP-treated rats: p-IκB-α. The experiment is classed as in vivo, SD rats. The settings on record: levodopa 10 mg/kg. For orientation: A western blot detects proteins with antibodies after separation by electrophoresis.
Description: (§3) Four-week-old male SD rats were purchased from Rion Bio, Inc. and were housed in a temperature-controlled (21-22° C.) and light-controlled (12 h light/dark cycle) environment with 70% humidity; they were given free access to water and rodent chow. […] The brains were dissected and analyzed by histological and western blotting analysis.
(§4) Rat brains were lysed in radioimmunoprecipitation assay lysis buffer containing protease inhibitor (Roche, Mannheim, Germany) and centrifuged at 10,000×g for 30 min at 4° C. Total protein levels were determined using a Bio-Rad protein kit (Bio-Rad, Hercules, Calif., USA). The proteins were separated by electrophoresis in a 10-15% sodium dodecyl sulfate-polyacrylamide gel and transferred onto the Immobilon-P transfer membrane (EMD Millipore Co., Bedford, Mass., USA). The membrane was blocked with 5% bovine serum albumin (Sigma-Aldrich). […] Protein bands were detected using a chemiluminescence method (Thermo Fisher Scientific) by a C-DiGit Blot Scanner (Li-COR, Lincoln, Nebr., USA), and their densities were quantified using ImageJ (NIH, Rockville, Md., USA). […]
Experiment [3] has as its system Mac-1.
Description: as §3, §4
A further experiment deals with Bcl-2. As to the kind of experiment: Western blotting of brain, MPTP-treated mice: Bcl-2. The settings on record: Levodopa (positive control). It counts as in vivo, C57BL/6 mice.
Description: as §1

Experiment [4] deals with iNOS. As to the kind of experiment: Western blotting of midbrain, MPTP-treated rats: iNOS. The settings on record: levodopa 10 mg/kg. The experiment is classed as in vivo, SD rats.
Description: as §3, §4
Experiment [5] relates to p-IκB-α. The experiment can be described thus: Western blotting of brain, MPTP-treated mice: p-IκB-α. The experiment is classed as in vivo, C57BL/6 mice. The settings on record: Levodopa.
Description: as §1

The next experiment concerns TH-positive cells. As to the kind of experiment: Immunohistochemical staining of tyrosine hydroxylase (TH) neurons, MPTP-intoxicated mice. It counts as in vivo, C57BL/6 mice. As to the method:
Brain sections (4 μm thick) were deparaffinized in xylene-alcohol series for 5 min each, with subsequent recovery of antigenic sites on steam fluent (pot value) for 30 min. The slides were washed twice for 5 min with 1× phosphate-buffered saline (PBS) and then immersed in 0.3% hydrogen peroxide for 30 min at 25° C. to block endogenous peroxidase activity. The sections were incubated with 10% goat serum (for polyclonal antibodies) for 30 min and then incubated at 4° C. with the TH primary antibody (Abcam, Cambridge, UK) for 24 h. Subsequently, all samples were incubated with biotinylated goat anti-rabbit IgG (H+L) horseradish peroxidase (HRP)-conjugated antibodies (Zymax). The sections were incubated with 3,3-diaminobenzidine (Vectro Laboratories, Inc., Burlingame, Calif., USA) for 10 min at 37° C. Finally, the tissue sections were counterstained with hematoxylin for 2 min, dehydrated with an alcohol-xylene series, and mounted with coverslips using Permount mounting medium (Thermo Fisher Scientific). The specimens were examined using a Nikon Eclipse TS100 microscope (Nikon, Tokyo, Japan) at 200× magnification, and the microscopy images were analyzed using the OptiView image analysis software (Korea Lab Tech, Seongnam-si, Republic of Korea). Immunopositive neurons were counted manually.

In the next experiment the test system is SOD. It counts as in vivo, C57BL/6 mice. The settings on record: MPTP-treated mice, brain.
Description: as §1

In experiment [6] the test system is cytochrome C. It counts as in vivo, C57BL/6 mice. The settings on record: MPTP-intoxicated mice, brain.
Description: as §1

A further experiment concerns SH-SY5Y cells. As to the kind of experiment: MTT cell viability in MPTP-treated SH-SY5Y cells. It counts as cell-based, human. The settings on record: 24 h. The method, then: 1-Methyl-4-phenylpyridinium (MPP+) induces a severe parkinsonian-like syndrome and a significant reduction in dopaminergic cells by the selective inhibition of complex I in the mitochondrial electron transport chain.
(§2) Human Neuroblastoma Cells (SH-SY5Y) (Korean Cell Bank, Seoul, Korea) were cultured in Dulbecco's modified Eagle's medium containing 10% fetal bovine serum (Hyclone, Logan, Utah, USA) and 1% penicillin-streptomycin (GIBCO, Grand Island, N.Y., USA) in a humidified incubator with 5% CO2 at 37° C.
SH-SY5Y ([…]) cells were cultured in a 96-well plate, and cell viability was determined using the MTT (Promega, Madison, Wis., USA) assay as described previously. […] The MTT solution was then added, followed by incubation at 37° C. for 4 h. The supernatant was removed, and the formed formazan crystals were dissolved in dimethyl sulfoxide. The absorbance of the resulting solution was measured at 540 nm using a UVM 340 microplate reader (Biochrom Asys, Cambridge, UK).

The test system of experiment [7] is cytochrome C. The experiment can be described thus: Western blotting, MPTP-treated SH-SY5Y cells: cytochrome C. The experiment is classed as cell-based, human. The settings on record: MPTP-intoxicated SH-SY5Y cells. The method, then: as §2
Experiment [8] deals with Mac-1. The experiment can be described thus: Western blotting, MPTP-treated SH-SY5Y cells: Mac-1. To be noted: 2-mM MPTP-intoxicated SH-SY5Y cells. It counts as cell-based, human. The method, then:
as §2

SMILES strings stand for the structures.

Description for COX-2: as §3, §4

For `N[C@@H](Cc1ccc(O)c(O)c1)C(=O)O` [Levodopa], in the experiment on COX-2 (MPTP rats, levodopa 10 mg/kg), the “expression level of COX-2 downregulated” value is reported as 1.7 fold. In the experiment on iNos [1] (MPTP mice, Levodopa treatment), the “elevation of iNos expression” value is “inhibited”. In addition, the “p-IκB-α level reduced, compared to MPTP control group” value with p-IκB-α [2] was 1.2 fold. Further, the “elevated level of MAC-1 attenuated vs MPTP control” value in the experiment on Mac-1 [3] (MPTP rats, levodopa 10 mg/kg) came to 1.9 fold. In addition, in the experiment on Bcl-2, the “effects of MPTP on Bcl-2 protein expression” value was “significantly reversed”. The “elevated iNOS expression inhibited vs MPTP control” value in the experiment with iNOS [4] is 2.9 fold. Also, in the experiment on p-IκB-α [5], the “increased p-IκB-α level” value is “slightly restored”. Also, the “numbers of TH-positive cells vs MPTP-intoxicated group” value in the experiment on TH-positive cells (MPTP mice, levodopa 2 mg/kg oral) is on record as “significantly elevated”.

Consider `CN1CC=C(c2ccccc2)CC1` [MPTP, 1-methyl-4-phenyl-1,2,3,6-tetrahydropyridine], for which the “COX-2 protein overexpressed, with reference to sham operated group” value in the experiment on COX-2 (MPTP-intoxicated rats) was 6 fold. Besides, in the experiment on SOD, the “expression level of SOD lower than in sham group” value stood at 2.3 folds. The “iNos protein expression level elevated by, compared with sham group” value with iNos [1] (MPTP-treated mice) came to 0.44 folds. In addition, in the experiment on cytochrome C [6], the “protein expression level of cytochrome C upregulated by, compared with sham mice” value is 0.54 folds. Moreover, the figures for the cell death with SH-SY5Y cells (1 mM MPTP) and in the experiment with SH-SY5Y cells (2 mM MPTP) were 29.05% and 68.89%, respectively. Besides, the “expression of Mac-1 protein elevated, compared with sham groups” value in the experiment on Mac-1 [3] (MPTP control rats) turned out to be 6.4 fold. The “protein expression level of cytochrome C upregulated” value in the experiment on cytochrome C [7] is 10 folds. Besides, the “Mac-1 protein expression level elevated by, compared with normal cells” value with Mac-1 [8] turned out to be 0.8 folds. In addition, the “number of TH-positive cells reduced, compared with sham group” value in the experiment with TH-positive cells (MPTP-intoxicated mice, 20 mg/kg/day) is listed as “more than two-fold”.

The values are drawn from US11638736B2, “Compositions for preventing or treating diseases or disorders associated with neuro-inflammation, neuro-apoptosis, or neuro- oxidative damage and uses thereof” (priority 2018, dated 2023).
